Where two headings read alike, the source gives them in different places.
Key:
TRKA^G667C mutant = test: Multi-target kinase inhibitors in BaF3 cell proliferation assays (Table S3); format: cell-based, Murine
[1] = tested on: wild-type TRKA/B/C or solvent-front mutations; test: as above; format: cell-based, Murine
[2] = tested on: TRKs-xDGF mutants TRKA-G667C, TRKB-G709C and TRKC-G696C in stable BaF3 models; test: Western blot of xDFG mutant TRK signal pathway (Figure S2); format: cell-based, Murine; settings: even at 200 nM, 6 h
Protocol: Cells were treated with various concentrations of each tested compound for a designated time. Then cells were lysed using 1 × SDS sample lysis buffer (CST recommended) with protease and phosphatase inhibitors. […] The films were blocked with 5% fat-free milk in TBS solution containing 0.5% Tween-20 for 4 h at room temperature, then incubated with the corresponding primary antibody (1:1000–1:200) overnight at 4 °C. After washing with TBST, HRP-conjugated secondary antibody was incubated for 2 h. The protein signals were visualized by ECL Western Blotting Detection Kit (Thermo Scientific, Waltham, MA, USA), and detected with Amersham Imager 600 system (GE, Boston, MA, USA).

[3] = tested on: BaF3-CD74-TRKA-G667C cells; test: Apoptosis by flow cytometry (Annexin V / 7-AAD); format: cell-based, Murine; settings: even at a concentration of 50 nM
Protocol: For analysis of the cell cycle, cells were harvested and washed twice with PBS after treatment for 24 h with indicated drugs or DMSO. […] The cells were then analyzed on a Guava easyCyte flow cytometer (Merck, Whitehouse Station, NJ, USA). For analysis of cell apoptosis, cells were harvested and washed twice with ice-cold PBS after treatment for 48 h with indicated drugs or DMSO. […] Finally, 400 μL of a 1 × BD binding buffer solution was replenished. The cells were then analyzed on a Guava easyCyte flow cytometer (Merck, Whitehouse Station, NJ, USA).

Parental BaF3 (+IL3) = test: BaF3 cell proliferation, CCK-8 assay; settings: Mus musculus, BaF3, 72 h, read-out: IC50 (nM ± SD) Parental BaF3 (+IL3)
Protocol: (§1) Murine BaF3 cells were purchased from JRCB cell bank. The BaF3 cell lines, which stably express natively-fused TRKA/B/C or various point mutants, were self-established by following previously described procedures. Briefly, NTRK genes were totally synthesized and cloned into pCDNA3.1(+) vectors (Invitrogen, Carlsbad, CA, USA). […] Stable strains were established by selection of cells 2 weeks post-transfection with 800 μg/mL G418 (Merck, Whitehouse Station, NJ) and further selection after the withdrawal of interleukin-3 (IL-3, R&D) for 2 weeks. All of BaF3 stable cell lines were verified by DNA sequencing, protein expression and anti-proliferation activity against positive drugs. […] All cells were grown at 37 °C in a humidified 5% CO2 atmosphere.
(§2) Cells were placed in 96-well plates (5000~8000/well) in complete medium. […] IC50 values were calculated by concentration-response curve fitting using GraphPad Prism 5.0 software. Each IC50 value is expressed as mean ± SD.

BaF3 MPRIP-TRKA = test: BaF3 cell proliferation, CCK-8 assay; settings: read-out: IC50 (nM ± SD) WT MPRIP-TRKA
Protocol: as §1, §2

BaF3 CD74-TRKA = test: BaF3 cell proliferation, CCK-8 assay; settings: Mus musculus, BaF3, 72 h, read-out: IC50 (nM ± SD) WT CD74-TRKA
Protocol: as §1, §2

BaF3 QKI-TRKB = test: BaF3 cell proliferation, CCK-8 assay; settings: Mus musculus, BaF3, 72 h, read-out: IC50 (nM ± SD) WT QKI-TRKB
Protocol: as §1, §2

BaF3 ETV6-TRKB = test: BaF3 cell proliferation, CCK-8 assay; settings: Mus musculus, BaF3, 72 h, read-out: IC50 (nM ± SD) WT ETV6-TRKB
Protocol: as §1, §2

BaF3 EML4-TRKC = test: BaF3 cell proliferation, CCK-8 assay; settings: Mus musculus, BaF3, 72 h, read-out: IC50 (nM ± SD) WT EML4-TRKC
Protocol: as §1, §2

BaF3 ETV6-TRKC = test: BaF3 cell proliferation, CCK-8 assay; settings: Mus musculus, BaF3, 72 h, read-out: IC50 (nM ± SD) WT ETV6-TRKC
Protocol: as §1, §2

BaF3 CD74-TRKA-G595R = test: BaF3 cell proliferation, CCK-8 assay; settings: Mus musculus, BaF3, 72 h, read-out: IC50 (nM ± SD) Solvent Front CD74-TRKA-G595R
Protocol: as §1, §2

BaF3 ETV6-TRKB-G639R = test: BaF3 cell proliferation, CCK-8 assay; settings: Mus musculus, BaF3, 72 h, read-out: IC50 (nM ± SD) Solvent Front ETV6-TRKB-G639R
Protocol: as §1, §2

BaF3 ETV6-TRKC-G623R = test: BaF3 cell proliferation, CCK-8 assay; settings: Mus musculus, BaF3, 72 h, read-out: IC50 (nM ± SD) Solvent Front ETV6-TRKC-G623R
Protocol: as §1, §2

BaF3 CD74-TRKA-F589L = test: BaF3 cell proliferation, CCK-8 assay; settings: Mus musculus, BaF3, 72 h, read-out: IC50 (nM ± SD) Gatekeeper CD74-TRKA-F589L
Protocol: as §1, §2

BaF3 ETV6-TRKB-F633L = test: BaF3 cell proliferation, CCK-8 assay; settings: Mus musculus, BaF3, 72 h, read-out: IC50 (nM ± SD) Gatekeeper ETV6-TRKB-F633L
Protocol: as §1, §2

BaF3 ETV6-TRKC-F617L = test: BaF3 cell proliferation, CCK-8 assay; settings: Mus musculus, BaF3, 72 h, read-out: IC50 (nM ± SD) Gatekeeper ETV6-TRKC-F617L
Protocol: as §1, §2

BaF3 CD74-TRKA-G667C = test: BaF3 cell proliferation, CCK-8 assay; settings: Mus musculus, BaF3, 72 h, read-out: IC50 (nM ± SD) xDFG CD74-TRKA-G667C
Protocol: as §1, §2

BaF3 ETV6-TRKB-G709C = test: BaF3 cell proliferation, CCK-8 assay; settings: Mus musculus, BaF3, 72 h, read-out: IC50 (nM ± SD) xDFG ETV6-TRKB-G709C
Protocol: as §1, §2

BaF3 ETV6-TRKC-G696C = test: BaF3 cell proliferation, CCK-8 assay; settings: Mus musculus, BaF3, 72 h, read-out: IC50 (nM ± SD) xDFG ETV6-TRKC-G696C
Protocol: as §1, §2

[4] = tested on: BaF3 cells with solvent front mutations (TRKA^G595R, TRKB^G639R, TRKC^G623R); test: BaF3 cell proliferation, summary over solvent front lines; settings: Mus musculus, BaF3, read-out: IC50 range in cells with solvent front mutations
Protocol: as §1, §2

[5] = tested on: BaF3 cells with gatekeeper mutations (TRKA^F589L, TRKB^F663L, TRKC^F617L); test: BaF3 cell proliferation, summary over gatekeeper lines; settings: Mus musculus, BaF3, read-out: IC50 in cells with gatekeeper mutations
Protocol: as §1, §2

Row | IC50 (BaF3 MPRIP-TRKA; Mus musculus, BaF3, 72 h) | IC50 (BaF3 CD74-TRKA) | IC50 (BaF3 QKI-TRKB) | IC50 (BaF3 ETV6-TRKB) | IC50 (BaF3 EML4-TRKC) | IC50 (BaF3 ETV6-TRKC) | IC50 (BaF3 CD74-TRKA-G595R) | IC50 (BaF3 ETV6-TRKB-G639R) | IC50 (BaF3 ETV6-TRKC-G623R) | IC50 (BaF3 CD74-TRKA-F589L) | IC50 (BaF3 ETV6-TRKB-F633L) | IC50 (BaF3 ETV6-TRKC-F617L) | IC50 (BaF3 CD74-TRKA-G667C) | IC50 (BaF3 ETV6-TRKB-G709C) | IC50 (BaF3 ETV6-TRKC-G696C) | SMILES | activity against TRKA^G667C mutant (TRKA^G667C mutant) | activity against wild-type TRKA/B/C or solvent-front mutations [1] | inhibition of the activation of TRKs-xDGF mutants [2] | effect on cell cycle or apoptosis [3] | IC50 (Parental BaF3 (+IL3)) | also measured
1 |  |  |  |  |  |  |  |  |  |  |  |  |  |  |  | Cc1ccc(C(=O)Nc2ccc(CN3CCN(C)CC3)c(C(F)(F)F)c2)cc1C#Cc1cnc2cccnn12 [ponatinib] | good activity | weak activity |  |  |  | 
2 | 1.1 ± 0.4 nM | 2.5 ± 0.2 nM | 1.5 ± 0.4 nM | 4.9 ± 1.4 nM | 2.1 ± 0.2 nM | 1.7 ± 1.1 nM | 13.6 ± 3.3 nM | 11.4 ± 2.2 nM | 9.6 ± 1.2 nM | 17.3 ± 2.2 nM | 55.8 ± 10.8 nM | 20.8 ± 7.9 nM | 66.3 ± 13 nM | 168 ± 73 nM | 98.4 ± 55 nM | C[C@@H]1CCc2ncc(F)cc2[C@H]2CCCN2c2ccn3ncc(c3n2)C(=O)N1 [Selitrectinib] |  |  | limited inhibition | little effect | > 10000 nM | IC50 [4]: 9.4 to 33.7 nM
3 |  |  | 0.8 ± 0.7 nM | 2.3 ± 0.5 nM | 2.7 ± 1.6 nM | 2.1 ± 0.9 nM |  |  | 14.6 ± 4.7 nM |  | 4.9 ± 2.2 nM | 2.1 ± 1.1 nM |  | 89.7 ± 38.8 nM | 42.9 ± 33.6 nM | C[C@H]1CNC(=O)c2cnn3ccc(nc23)N[C@H](C)c2cc(F)ccc2O1 [Repotrectinib] |  |  |  |  | 906 ± 69 nM | IC50 (BaF3 MPRIP-TRKA; CCK-8, 72 h): 1.1 ± 0.2 nM
4 | 1.6 ± 0.4 nM | 4.4 ± 1 nM | 4.8 ± 1.6 nM | 8 ± 3.1 nM | 5.2 ± 1.6 nM | 7.8 ± 4.2 nM |  | 529 ± 130 nM | 617 ± 69.8 nM | 2.1 ± 0.3 nM | 13 ± 3.6 nM | 4.6 ± 2.8 nM | 33.2 ± 3.2 nM | 285 ± 92.4 nM | 124 ± 60.4 nM | CN1CCN(c2ccc(C(=O)Nc3n[nH]c4ccc(Cc5cc(F)cc(F)c5)cc34)c(NC3CCOCC3)c2)CC1 [Entrectinib] |  |  |  |  | 2340 ± 202 nM | 
5 |  |  |  |  |  |  |  |  |  |  |  |  |  |  |  | COc1cc2nccc(Oc3ccc(NC(=O)C4(C(=O)Nc5ccc(F)cc5)CC4)cc3)c2cc1OC [cabozantinib] | good activity | weak activity |  |  |  | 
6 | 4.8 ± 1.2 nM | 8 ± 0.8 nM | 11.4 ± 4.2 nM | 24 ± 4.2 nM | 21.7 ± 6.9 nM | 11.2 ± 2.8 nM | 1110 ± 251 nM | 1900 ± 778 nM | 1270 ± 165 nM | 423 ± 92.6 nM | 1400 ± 214 nM | 513 ± 156 nM | 313 ± 48.5 nM | 1630 ± 821 nM | 769 ± 325 nM | O=C(Nc1cnn2ccc(N3CCC[C@@H]3c3cc(F)ccc3F)nc12)N1CC[C@H](O)C1 [Larotrectinib] |  |  | limited inhibition | little effect | > 10000 nM | IC50 [5]: > 423 nM
